{"source": "patent US20250281498A1", "about": "“FUSED AMINO PYRIMIDINE COMPOUNDS FOR TREATMENT OF SYNUCLEINOPATHIES AND TDP-43 PROTEINOPATHIES” (Ovid Therapeutics Inc., priority 2024, published 2025)", "key": {"KCC2-S940A": {"target": "T1, KCC2-S940A (Homo sapiens, UniProt Q9H2X9, S963A)", "T1 construct": "expressed in transfected cells; host or cells: HEK-293", "T1 sequence (Q9H2X9 1-1116 isoform Q9H2X9-2 S940A)": "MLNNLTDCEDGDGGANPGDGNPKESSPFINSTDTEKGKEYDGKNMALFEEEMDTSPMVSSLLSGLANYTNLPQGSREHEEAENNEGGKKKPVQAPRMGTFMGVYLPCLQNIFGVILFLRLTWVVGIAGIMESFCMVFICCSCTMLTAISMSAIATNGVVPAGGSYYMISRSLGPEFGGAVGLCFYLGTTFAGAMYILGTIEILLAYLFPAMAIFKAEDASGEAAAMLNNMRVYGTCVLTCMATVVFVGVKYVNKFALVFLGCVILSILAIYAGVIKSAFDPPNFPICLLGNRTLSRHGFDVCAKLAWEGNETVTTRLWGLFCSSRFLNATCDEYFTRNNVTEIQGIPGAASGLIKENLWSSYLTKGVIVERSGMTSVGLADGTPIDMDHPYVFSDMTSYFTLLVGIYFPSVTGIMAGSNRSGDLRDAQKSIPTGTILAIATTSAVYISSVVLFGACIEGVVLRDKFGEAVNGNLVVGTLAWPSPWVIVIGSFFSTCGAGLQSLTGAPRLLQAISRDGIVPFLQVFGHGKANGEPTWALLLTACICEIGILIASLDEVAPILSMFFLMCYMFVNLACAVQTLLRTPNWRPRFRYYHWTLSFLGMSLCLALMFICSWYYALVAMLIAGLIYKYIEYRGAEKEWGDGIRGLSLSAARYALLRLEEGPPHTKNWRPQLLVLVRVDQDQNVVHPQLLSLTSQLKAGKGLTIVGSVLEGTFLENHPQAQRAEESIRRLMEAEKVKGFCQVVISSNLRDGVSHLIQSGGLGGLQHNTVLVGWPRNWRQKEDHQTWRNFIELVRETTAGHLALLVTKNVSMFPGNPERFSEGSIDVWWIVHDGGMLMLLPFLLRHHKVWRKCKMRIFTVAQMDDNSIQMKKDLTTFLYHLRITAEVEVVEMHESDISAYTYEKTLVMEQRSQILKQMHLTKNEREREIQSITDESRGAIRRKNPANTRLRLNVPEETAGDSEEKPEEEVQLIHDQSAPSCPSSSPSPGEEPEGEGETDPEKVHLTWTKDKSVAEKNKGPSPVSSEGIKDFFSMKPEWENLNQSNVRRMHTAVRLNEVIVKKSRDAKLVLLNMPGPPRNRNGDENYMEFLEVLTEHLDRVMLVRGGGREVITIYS", "assay": "TI+ flux assay, HEK-293 cells expressing KCC2-S940A", "format": "cell-based", "description": "(§1) FLIPR TI Flux assay. HEK-293 cells were washed with HBSS, and then incubated with loading buffer containing TI sensitive fluorescent dye (https://www.moleculardevices.com), 20 μM bumetanide 20 μM ouabain and 2.5 mM probenecid for 1 h at room temperature (RT) under control conditions or with drugs in the dark using a FlexStation 3 microplate reader (Molecular Devices) and imaged […] for 30 min. Stimulus buffer was added containing 5 mM K^+/0.5 mM Tl^+ and cells were imaged every 1.5 over a 190 second time course The initial rate Tl^+ uptake (Relative Fluorescence Units (RFU) per second) was determined following addition of the stimulus buffer as outlined previously (Conway et al., 2017, supra) (Lee et al., 2022, supra).\n(§2) Several studies have shown that the activity and plasma membrane accumulation of KCC2 is potentiated via phosphorylation of S940, a process mediated by the activity of protein kinase C and protein phosphatase 1 (Lee et al., 2011, supra; Lee et al., J Biol Chem 282, 29777-29784 (2007); Moore et al., Proc. Natl. Acad. Sci. U.S.A. 115, 10166-10171 (2018); Moore et al., Trends Neurosci. 40, 555-571 (2017); Silayeva et al., Proc. Natl. Acad. Sci. U.S.A. 112, 3523-3528 (2015)). […] Compared to KCC2, effects on KCC3, KCC4, and NKCC1 were only seen at concentrations more than 35-fold that of KCC2 (>100 μM) (FIG. 1G)."}, "KCC4": {"target": "T2, KCC4 (Homo sapiens, UniProt Q9Y666)", "T2 construct": "expressed in transfected cells; host or cells: HEK-293", "T2 sequence (Q9Y666 1-1083)": "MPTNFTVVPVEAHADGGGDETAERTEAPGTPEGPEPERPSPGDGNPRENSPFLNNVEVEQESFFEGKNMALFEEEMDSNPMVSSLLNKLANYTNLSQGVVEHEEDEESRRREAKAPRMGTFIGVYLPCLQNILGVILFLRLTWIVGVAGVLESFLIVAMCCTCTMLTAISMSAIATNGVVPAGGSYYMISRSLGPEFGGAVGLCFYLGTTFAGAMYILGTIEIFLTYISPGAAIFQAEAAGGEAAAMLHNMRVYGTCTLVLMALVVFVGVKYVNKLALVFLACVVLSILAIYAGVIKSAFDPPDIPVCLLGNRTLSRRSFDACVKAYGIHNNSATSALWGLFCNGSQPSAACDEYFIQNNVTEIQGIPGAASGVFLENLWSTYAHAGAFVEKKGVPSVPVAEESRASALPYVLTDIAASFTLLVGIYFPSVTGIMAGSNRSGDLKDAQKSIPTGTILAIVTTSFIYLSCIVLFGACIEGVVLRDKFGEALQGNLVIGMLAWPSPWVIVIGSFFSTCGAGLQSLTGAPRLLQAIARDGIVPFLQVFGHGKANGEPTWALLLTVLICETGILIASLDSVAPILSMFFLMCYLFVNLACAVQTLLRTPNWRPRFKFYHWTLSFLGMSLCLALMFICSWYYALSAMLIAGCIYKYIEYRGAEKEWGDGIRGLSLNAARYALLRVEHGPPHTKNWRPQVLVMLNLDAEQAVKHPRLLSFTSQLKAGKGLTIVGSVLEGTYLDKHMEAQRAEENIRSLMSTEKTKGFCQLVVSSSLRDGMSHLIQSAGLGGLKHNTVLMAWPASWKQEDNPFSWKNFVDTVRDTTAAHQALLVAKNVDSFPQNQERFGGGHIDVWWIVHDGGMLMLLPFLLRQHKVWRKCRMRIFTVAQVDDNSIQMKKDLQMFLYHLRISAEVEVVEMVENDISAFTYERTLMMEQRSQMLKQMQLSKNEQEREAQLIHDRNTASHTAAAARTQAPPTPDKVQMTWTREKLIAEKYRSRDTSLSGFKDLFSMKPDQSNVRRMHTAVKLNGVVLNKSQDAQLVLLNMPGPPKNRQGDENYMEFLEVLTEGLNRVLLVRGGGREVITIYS", "assay": "TI+ flux assay, HEK-293 cells expressing KCC4", "format": "cell-based", "details": "read-out: concentration at which effects on KCC4 were seen (EC50 chart FIG. 1G)", "description": "as §1, §2"}, "[1]": {"design": "species or system mice", "details": "in vivo"}}}
{"smiles": "C[C@@H]1CN(c2nc3c(c(Nc4ccc(C5CCCCC5)cc4)n2)COC3)CCO1", "note": "[Compound A, (R)—N-(4-cyclohexylphenyl)-2-(2-methylmorpholino)-5,7-dihydrofuro[3,4-d]pyrimidin-4-amine]", "values": [{"measurement": "activity of KCC2-S940A construct", "setting": "KCC2-S940A", "value": "increased the activity"}, {"measurement": "EC50", "setting": "KCC4", "value": "> 100", "unit": "µM"}, {"measurement": "gross effects on mouse behavior in the open field", "setting": "[1]", "value": "no gross effects on mouse behavior"}, {"measurement": "total distance traveled in open field", "setting": "[1]; mouse, sc, 50 mg/kg", "value": "6134.2±235.3", "unit": "cm"}]}
